Experimental data reported in US8058442B2 (Technion Research and Development Foundation Ltd., priority 2002, dated 2011).
pEC50, pIC50: −log10 of the molar value. Read-outs that look alike come from different tables or passages of the source. Marks after values point to notes of the source that are not given here.

Key:
[1] = Iron chelation in solution: fluorescence dequenching of iron-quenched calcein; conditions: Fe-CAL in HBS pH 7.4, room temperature, 1 h incubation, read-out: half maximal dequenching level
Method: Iron binding was determined by the chelator capacity for restoring the fluorescence of iron-quenched calcein (CAL), a dynamic fluorescent metallosensor. The iron-scavenging properties of the chelators were assessed in solution, by mixing iron salts with free CAL.
Iron precomplexed calcein (Fe-CAL) solutions of 1 μm (in Hepes 20 mM buffered saline, pH 7.4=HBS) were incubated in the presence of the indicated concentrations of different chelators at room temperature and the fluorescence intensity (475 nm->520 nm) followed with time in a Tecan fluorescence plate reader, using 96-well culture plates (Nunc) at 100 μl final volume. The time-dependent complexation of iron from Fe-CAL by the chelators was followed by fluorescence dequenching. The fluorescence intensity attained after 1 h incubation is shown as a function of the chelator concentration.
The corresponding half maximal dequenching level for the corresponding chelator was (in μM) (rank order from the fastest acting to the slowest): […]

[2] = tested on: human erythroleukemia K562 cells; assay: Iron permeation of the chelators into calcein-loaded K562 cells; type: cell-based; conditions: 5 μM chelator, 37° C.
Method: The iron-scavenging properties of the chelators were assessed in human erythroleukemia K562 cells, by loading with the permeant CAL-AM probe, in situ formation of free CAL, and binding of cytosolic labile iron. Calcein-AM readily passes through the cell membrane of viable cells because of the enhanced hydrophobicity as compared to Calcein. When Calcein-AM permeates into the cytoplasm, it is hydrolyzed by esterases in cells to the parent Calcein, a pH-independent, cytosolic fluorescent marker, which remains inside of the cell. The time-dependent recovery of fluorescence in the presence of a given chelator provided a continuous measure for the capacity of the chelator to access the iron/CAL-containing compartment.
Calcein uptake and intracellular fluorescence were determined as follows: K562 erythroleukemia cells were preloaded with calcein (CAL) by incubation with […] of the fluorescent probe CAL-AM for 5 min at 37° C., washed and incubated in HBS medium containing anti-CAL antibodies in order to quench traces of extracellular-associated fluorescence. The suspensions were placed in 96-well plates (100 μl final volume) and analyzed as described above while maintaining the system at 37° C. At the indicated time, the indicated chelator was added so as to reach a final 5 μM concentration.
The values of half maximal time (sec) and fraction of fluorescence recovery were: […]

[3] = n-octanol/water shake-flask distribution coefficient; type: physicochemical; conditions: for D in 0.01N HCl / D in 0.01N NaOH / D in H2O: distribution ratio D = Corg/Caq
From the text: The partition coefficient (Pow) or the distribution ratio (Dow) between octanol and water are most commonly used measures of the hydrophobicity of compounds. Dow can depend on the concentration of solute, but at reasonably low concentrations. If the solute is in the same form in both phases, Dow becomes constant and is called the partition coefficient Pow. Pow plays an important role in determining the physico-chemical properties and the behaviour of numerous organic compounds in biological systems. Pow is applied to quantitative structure-activity relationship studies, and as a measure of hydrophobicity. All the partition measurements are carried out using a 1-octanol/water shake-flask procedure (Leo, A J. 1991, “Hydrophobic parameter: measurement and calculation”, Methods Enzymol. 202:544-91) or simply by the elution time of solute from HPLC column. Thereafter, the transport properties of the iron-complexes are examined in the water/lipid membrane system (liposomes), which mimics biomembranes much better than the octanol/water system (Breuer et al, 1995).
1-Octanol (Riedel-deHaën, synthesis grade (250-270 nm abs.<0.06) and glass distilled deionized water were used as the partitioning solutions. A Hewlett-Packard 8450A diode array spectrophotometer was used for the quantitative determination of the tested com-pounds in the standard solutions and in the partitioned solutions. The aqueous phase stock solutions were shaken with an excess of 1-octanol to presaturate them and were then allow-ed to stand overnight before use. The 1-octanol stock solutions were also presaturated with 10 mM NaOH and allowed to settle overnight. The experiments were performed in 10-ml stoppered centrifuge tubes. The tubes were inverted gently for 5 min and then, to assure complete phase separation, they were centrifuged for 20 min at 1,000-2,000 g. The aqueous and organic phases were removed separately and analyzed by UV spectrophotometry.
Lipophilicity plays an important role in drug absorption and distribution. The logarithm of the n-octanol/water distribution coefficients (logD) is the most commonly used measure of the lipophilicity of a drug candidate. Here we used an n-octanol/water shake-flask procedure to determine logD. […] In acidic and basic solution, all the test compounds have low log D values, which refer to a good hydrophilicity. This can be explained by the formation of oxinium chloride (in acid) and sodium oxinate (in base) derivatives.

rat brain MAO-A = target: T1, rat brain MAO-A (Rattus norvegicus, UniProt P21396); assay: In vitro inhibition of rat brain MAO-A; type: biochemical; conditions: rat brain homogenate
T1 construct: from tissue; host or cells: rat brain homogenate, 4500 g pellet
T1 sequence (P21396 1-526): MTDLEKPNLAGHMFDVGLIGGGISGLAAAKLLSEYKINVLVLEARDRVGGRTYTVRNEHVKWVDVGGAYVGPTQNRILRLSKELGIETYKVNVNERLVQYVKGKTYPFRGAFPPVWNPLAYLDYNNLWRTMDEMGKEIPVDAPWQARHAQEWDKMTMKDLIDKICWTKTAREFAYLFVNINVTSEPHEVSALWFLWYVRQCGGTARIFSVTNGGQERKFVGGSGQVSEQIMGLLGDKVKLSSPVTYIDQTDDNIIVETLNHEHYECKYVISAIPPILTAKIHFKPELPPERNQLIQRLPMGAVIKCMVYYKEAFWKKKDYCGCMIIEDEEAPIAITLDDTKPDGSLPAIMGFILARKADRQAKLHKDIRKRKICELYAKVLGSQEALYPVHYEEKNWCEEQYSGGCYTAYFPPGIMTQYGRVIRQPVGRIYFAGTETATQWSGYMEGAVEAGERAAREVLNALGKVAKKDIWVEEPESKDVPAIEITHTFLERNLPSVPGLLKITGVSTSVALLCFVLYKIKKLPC
Method: (§1) Rats were decapitated and the brains were quickly taken into a weighted ice-cold sucrose buffer (0.32 M), and their weights were determined. All subsequent procedures were performed at 0-4° C. The brains were homogenized in 0.25 M sucrose (one part tissue to 20 parts sucrose) in a Teflon glass homogenizer followed by the addition of sucrose buffer to a final concentration of 10% homogenate. The homogenates were centrifuged at 600 g for 15 min. The supernatant fraction was taken out and centrifuged at 4500 g for 30 min, the pellet was diluted in 0.32 M sucrose buffer and kept frozen for later assaying of MAO. Protein concentration was determined with Bradford reagent at 595 nm, using bovine serum albumin as a standard.
(§2) The test compound was added to a suitable dilution of the enzyme preparation (70 μg protein for MAO-B and 150 μg MAO-A assay) in 0.05 M phosphate buffer (pH 7.4). The mixture was incubated together with […], a specific inhibitor of MAO-B (for determination of MAO-A) or […] clorgylin, a specific inhibitor of MAO-A (for determination of MAO-B). Incubation was carried for 1 h at 37° C. before addition of ^14C-5-hydroxytryptamine binoxalate ([…]) for determination of MAO-A, or ^14C-phenylethylamine 100 µM for determination of MAO-B, and incubation continued for 30 min or 20 min, respectively. The reaction was stopped with 2 M ice-cold citric acid, and the metabolites were extracted and determined by liquid-scintillation counting in cpm units.
(§3) MAO-A and MAO-B activities were determined in rat brain homogenate in vitro following incubation with varying concentrations of the test compounds.
In another experiment, the in vitro inhibitory activity of HLA20, M32, VK-28, M30, M31, and propargylamine (P) was tested against rat brain MAO-A. The test compounds were added to buffer containing 10^−7M deprenyl and were incubated with the tissue homogenate for 60 min at 37° C. before addition of ^14C-5-hydroxytryptamine. MAO-A activity in presence of the test compound was expressed as a percentage of that in control samples.

rat brain MAO-B = target: T2, rat brain MAO-B (Rattus norvegicus, UniProt P19643); assay: In vitro inhibition of rat brain MAO-B; type: biochemical; conditions: for pIC50: rat brain homogenate
T2 construct: from tissue; host or cells: rat brain homogenate, 4500 g pellet
T2 sequence (P19643 1-520): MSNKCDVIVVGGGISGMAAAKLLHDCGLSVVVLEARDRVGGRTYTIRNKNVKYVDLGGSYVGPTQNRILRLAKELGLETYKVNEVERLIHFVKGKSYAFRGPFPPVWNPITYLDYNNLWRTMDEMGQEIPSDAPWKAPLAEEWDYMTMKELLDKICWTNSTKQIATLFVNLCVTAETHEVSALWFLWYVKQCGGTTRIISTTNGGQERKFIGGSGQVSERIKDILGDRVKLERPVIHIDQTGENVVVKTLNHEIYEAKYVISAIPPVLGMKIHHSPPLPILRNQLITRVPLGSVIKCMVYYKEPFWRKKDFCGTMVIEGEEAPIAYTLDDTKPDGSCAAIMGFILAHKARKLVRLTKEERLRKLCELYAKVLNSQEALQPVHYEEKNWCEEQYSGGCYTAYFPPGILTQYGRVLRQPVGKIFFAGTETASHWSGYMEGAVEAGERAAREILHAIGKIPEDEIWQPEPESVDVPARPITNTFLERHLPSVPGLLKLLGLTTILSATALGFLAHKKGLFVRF
Method: as §1, §2, §3
MAO-B activity in presence of the test compound was expressed as a percentage of that in control samples.

NC(Cc1ccc(O)c2ncccc12)C(=O)O (racemic) [HLM8, DL-3-(8-hydroxyquinolin-5-yl)alanine]
pEC50 ([1]; FIG. 1A): 5.22
half maximal time ([2]; FIG. 2A): 600 s
logD [3]: < -2
D in 0.01N HCl ([3]; 0.01N HCl): 0.0031
D in 0.01N NaOH ([3]; 0.01N NaOH): 0.020
D in H2O ([3]; H2O): 0.0049
logD ([3]; pH 2): < -2
logD ([3]; pH 12): -1.7

CCOC(=O)C(N)Cc1ccc(O)c2ncccc12 (racemic) [HLM9, DL-3-(8-hydroxyquinolin-5-yl)alanine ethyl ester]
pEC50 ([1]; FIG. 1A): 5.14
half maximal time ([2]; FIG. 2A): 200 s
logD [3]: -1.7
D in 0.01N NaOH ([3]; 0.01N NaOH): 0.0014
D in H2O ([3]; H2O): 0.018
logD ([3]; pH 5.64): -1.42
logD ([3]; pH 12): < -2
D ([3]; phosphate buffer (pH = 5.64), printed in the 0.01N HCl column): 0.038^b

Fmoc-KKC(HQ)L-NH2 [Compound M7]
pEC50 ([1]; FIG. 1C): 5.47

O=C(NN=Cc1ccccc1O)c1ccncc1 [SIH, salicylaldehyde isonicotinoyl hydrazone, reference compound]
half maximal time ([2]; FIG. 2A): 125 s
half maximal time ([2]; FIG. 2C): 100 s

N[C@H](Cc1ccc(O)c2ncccc12)C(=O)O [Compound M9, D-3-(8-hydroxyquinolin-5-yl)alanine]
pEC50 ([1]; FIG. 1B): 5.01

N[C@H](CSCc1ccc(O)c2ncccc12)C(=O)O [Compound M11, S-(8-hydroxyquinolin-5-ylmethyl)-D-cysteine]
pEC50 ([1]; FIG. 1C): 5.27

CCOC(=O)C(Cc1ccc(O)c2ncccc12)(NC(C)=O)C(=O)OCC
pEC50 ([1]; FIG. 1A): 5.30
logD ([3]; H2O, read-out: LogD in H2O): 2.19
D in 0.01N HCl ([3]; 0.01N HCl): 0.043
D in 0.01N NaOH ([3]; 0.01N NaOH): 0.097
D in H2O ([3]; H2O): 155.68
logD ([3]; pH 2, 0.01N HCl, read-out: LogD in 0.01N HCl): -1.37
logD ([3]; pH 12, 0.01N NaOH, read-out: LogD in 0.01N NaOH): -1.01

C#CCN [Propargylamine, propargylamine, reference compound]
pIC50 (rat brain MAO-A): 4.18
pIC50 (rat brain MAO-B): 5.00

C#CCNC(Cc1ccc(O)c2ncccc12)C(=O)OCC (centres unmarked) [Compound M31]
effect on MAO-A (rat brain MAO-A): almost no effect
inhibition at 100 µM (rat brain MAO-B; 100 μM, read-out: inhibition of MAO-B): 14.2%

C#CCN(C)Cc1ccc(O)c2ncccc12 [Compound M30]
pIC50 (rat brain MAO-A): > 7.00
pIC50 (rat brain MAO-B): > 7.00

N[C@@H](CSCc1ccc(O)c2ncccc12)C(=O)O [Compound M12, S-(8-hydroxyquinolin-5-ylmethyl)-L-cysteine]
pEC50 ([1]; FIG. 1C): 5.22

Cc1c(O)c(=O)ccn1C [Compound L1, 1,2-dimethyl-3-hydroxy-pyridin-4-one, reference compound]
pEC50 ([1]; FIG. 1A): 5.08
pEC50 ([1]; FIG. 1B): 5.08
pEC50 ([1]; FIG. 1C): 5.18

CC(=O)N(O)CCCCCNC(=O)CCC(=O)N(O)CCCCCNC(=O)CCC(=O)N(O)CCCCCN [DFO, desferrioxamine B, reference compound]
pEC50 ([1]; FIG. 1A): 6.30
pEC50 ([1]; FIG. 1B): 6.30
pEC50 ([1]; FIG. 1C): 6.30

CCOC(=O)N1CCN(Cc2ccc(O)c3ncccc23)CC1 [HLA16, ethyl 4-(8-hydroxyquinolin-5-ylmethyl)-1-piperazine carboxylate]
pEC50 ([1]; FIG. 1A): 5.46
pEC50 ([1]; FIG. 1B): 5.36
half maximal time ([2]; FIG. 2A): 225 s
half maximal time ([2]; FIG. 2B): 220 s
logD [3]: 1.79
D in 0.01N HCl ([3]; 0.01N HCl): 0.018
D in 0.01N NaOH ([3]; 0.01N NaOH): 2.44
D in H2O ([3]; H2O): 62.96
logD ([3]; pH 2): -1.74
logD ([3]; pH 12): 0.39

N[C@@H](Cc1ccc(O)c2ncccc12)C(=O)O [Compound M10, L-3-(8-hydroxyquinolin-5-yl)alanine]
pEC50 ([1]; FIG. 1B): 5.01
half maximal time ([2]; FIG. 2B): 1050 s
